Where two headings read alike, the source gives them in different places.
Columns and labels:
[1] = tested on: NCI-H460 cells; test: MTT cytotoxicity in NCI-H460 cells
[2] = tested on: cytochrome c release in A549 cells; test: Cytochrome c in cytosol fractions, western blotting; type: cell-based; conditions: for Level of cytochrome c in cytosol: 24-hour treatment; for Cytochrome c release with PG in medium: 24 hours, with PG versus without PG
Source text: (§1) PRELID3b and PRELID1 are PRELI proteins. These proteins and TRIAP1 locate within the inter membrane space responsible for the regulation of phospholipid metabolism. Therefore, a cardiolipin probe is used to measure levels of mitochondrial cardiolipin after drug treatment. […] A decreased level of cardiolipin in PRELI or TRIAP1 depleted cells appears to accelerate the release of cytochrome c, rendering cells vulnerable to apoptosis. […] Cardiolipin is synthesized by a series of steps with phosphatidylglycerol (PG) as the precursor of last step catalyzing by cardiolipin synthase.

[3] = tested on: MS 1 cells; test: Tube formation (angiogenesis) on Matrigel; type: cell-based; conditions: 4 hours
Protocol: (§2) The effect of CK and CKD-4 on cell apoptosis and cell death is indicated by A549 cells treated with 60 μM of CK and 20 μM of CKD-4 for 48 hours that are analyzed by flow cytometry. […] Angiogenesis is another hallmark of cancer which plays an important role in metastasis and tumor growth. […] Cancer stem cells, owing to their ability of self-renewal, have become the major reason for relapse of tumor and poor prognosis. The efficacy of CKD-4 in lung cancer patient derived organoid is indicated using CellTiterGlo assay, where three state of the art clinical anti-cancer drugs, carboplatin, cisplatin, and paclitaxel are a positive control. The dosage of these three drugs is sufficient to trigger a 30% inhibition of cell viability. FIG. 6 and FIG. 7 indicated less than 30% suppression of cell viability is observed with treatment of 20 μM CKD-4.

[4] = tested on: NCI-H460 xenografts; test: NCI-H460 xenografts in nude mice; type: in vivo; conditions: 5 mg/kg intravenous once every two days; for Tumor volume: versus solvent control
[5] = tested on: A549 cells; test: Cytotoxicity in A549 cells; type: cell-based; conditions: Homo sapiens
[6] = tested on: MHCC97-L cells; test: MTT cytotoxicity in MHCC97-L cells; type: cell-based; conditions: MHCC97L; MHCC97-L liver cancer, 72 hours
[7] = tested on: NCI-H1650 cells; test: Cytotoxicity in NCI-H1650 cells; type: cell-based; conditions: Homo sapiens
[8] = target: T1, PRELID3b (Homo sapiens, UniProt Q9Y3B1); test: Cellular thermal shift assay by western blotting, PRELID3b; type: cell-based; conditions: A549 cells, one hour
T1 construct: endogenous in cells; host or cells: A549
Protocol: A549 cells were treated with 50 μM of CK or 15 uM of CKD-4 for one hour, where eight lysate aliquots were heated to indicated temperature.
(§3) Most probable target candidate proteins are ranked in PISA based on the absolute value of log2 ΔSm of drug relative to DMSO treatment and PTM ranking are based on the log2 fold change of drug over DMSO treatment. The rankings of two experiments are summed to provide a list of candidate drug targets.

[9] = tested on: A549 cells; test: Cell viability with phosphatidylglycerol (PG) supplement, NBB assay; type: cell-based; conditions: 24 hours, PG supplemented DMEM versus DMEM
Protocol: FIG. 15C is a bar chart of the cell viability of A549 after treatment with 100 μM of CK or 12.5 μM of CKD-4 for 24 hours in DMEM or phosphatidylglycerol (PG) supplemented DMEM as mean±SD, ***P≤0.001.
as §1

[10] = tested on: SW480 cells; test: MTT cytotoxicity in SW480 cells; type: cell-based; conditions: Homo sapiens; SW480 colon cancer, 72 hours
[11] = target: MBP (Escherichia coli, UniProt P0AEX9); test: Biolayer interferometry with his tag MBP (control); type: binding; conditions: various concentrations
Protocol: (§4) The sensor used is coated with Ni NTA so that proteins with the hexa-histidine tag could be immobilized on the sensor. After immobilization with protein, the sensor was incubated with the compounds at different concentrations in an ascending order. Both the stoichiometry of CK or CKD-4 with PRELID3b is in a 1:1 ratio but the kinetic modes for the two cases are different. […] The result is consistent with the docking analysis showing that the interaction between CKD-4 and PRELID3b is stronger than with CK.

[12] = tested on: cardiolipin in A549 cells; test: Mitochondrial cardiolipin quantification with cardiolipin probe; type: cell-based; conditions: 24-hour treatment
Protocol: FIG. 15A is a bar chart of the CK and CKD-4 induced apoptosis by quantification of cardiolipin in mitochondrial after treatment with CK or CKD-4 for 24 hours in A549 cells as mean±SD, **, P≤0.01, *, P≤0.05.
as §1

[13] = tested on: A549 cells; test: Apoptosis by flow cytometry (Annexin V-FITC / propidium iodide); type: cell-based; conditions: 48 hours
Protocol: as §2

[14] = tested on: Hela cells; test: MTT cytotoxicity in Hela cells; type: cell-based; conditions: Homo sapiens; Hela cervical cancer, 72 hours
[15] = target: T2, PRELID3b-TRIAP1-MBP (Homo sapiens, UniProt Q9Y3B1); test: Biolayer interferometry with his tag PRELID3b-TRIAP1-MBP; type: binding; conditions: for Kd: steady-state analysis, 1:1
T2 construct: made in house
Source text: To validate the docking analysis, biolayer interferometry (BLI) was employed to measure the interaction between PRELID3b and CK or CKD-4. The recombinant protein was purified by co-expression of PRELID3b with a hexa-histidine tag and the p53 regulated protein, TRIAP1 conjugated with maltose binding protein (MBP). The reported crystal structure of RELID3b is in complex with TRIAP1 and they form as a swapped dimer. PRELID3b is intrinsically unstable in the absence of TRIAP1 and easily degraded by mitochondrial protease. Maltose binding protein (MBP) is a necessary component to improve the solubility of the whole protein complex.
as §4

[16] = target: T3, PRELID1 (Homo sapiens, UniProt Q9Y255); test: Cellular thermal shift assay by western blotting, PRELID1; type: cell-based; conditions: A549 cells, one hour
T3 construct: endogenous in cells; host or cells: A549
Protocol: A549 cells were treated with 50 μM of CK or 15 μM of CKD-4 for one hour, where eight lysate aliquots were heated to indicated temperature.
as §3

[17] = target: T3, PRELID1; test: Proteome integral solubility alteration (PISA) in cells; type: cell-based; conditions: in cell
Source text: Two label free chemical proteomics, proteome integral […] alteration assay (PISA) and ProtargetMiner (PTM) are alternative strategies to study CK and CKD-4. PISA is a turbo-charged method development of thermal proteome profiling (TPP) which based on the principle that ligand induced stability of proteins is observed upon a temperature increase. PTM is used to contrast the proteome signature of CK and CKD-4 against the PTM database to reveal their mode of action. FIGS. 9A and 9B provide an overview of the PISA results in cells with CK and CKD-4, where data is shown as a volcano plot with the X-axis as log2 ΔSm of drug over DMSO treatment and the Y-axis as log 10 p-value. In FIGS. 10 and 11 the PTM result of CK and CKD-4 in cells are compared to 9 other anti-cancer drugs in A549 cells in the database and is plotted for OPLS-DA analysis.
as §3

[18] = tested on: CCD-19Lu lung normal fibroblast; test: Cytotoxicity in lung normal fibroblast CCD-19Lu; type: cell-based; conditions: Homo sapiens
[19] = tested on: HepG2 cells; test: MTT cytotoxicity in HepG2 cells; type: cell-based; conditions: Homo sapiens; HepG2 liver cancer, 72 hours
[20] = Solubility; type: physicochemical; conditions: even in dimethyl sulfoxide (DMSO)
[21] = tested on: NCI-H460 cells
[22] = tested on: A549 cells; type: in vitro ADME; conditions: human, 10 μM
Source text: To explore the stability of CKD-4, the amount of CK in CKD-4 treated A549 cells was also quantified.

[23] = tested on: lung cancer patient derived organoid; test: Lung cancer patient derived organoid viability, CellTiterGlo; type: cell-based; conditions: 72 hours
Protocol: as §2

[24] = Homo sapiens, NCI-H460, 24 h, read-out: IC50 24 h
[25] = Homo sapiens, NCI-H460, 48 h, read-out: Cytotoxicity IC50
[26] = Homo sapiens, NCI-H460, 72 h, read-out: IC50 72 h
[27] = A549, 24 h, read-out: IC50 24 h
[28] = A549, 48 h, read-out: IC50 48 h
[29] = A549, 72 h, read-out: IC50 72 h
[30] = NCI-H1650, 24 h, read-out: IC50 24 h
[31] = NCI-H1650, 48 h, read-out: IC50 48 h
[32] = NCI-H1650, 72 h, read-out: IC50 72 h

T2 sequence (Q9Y3B1 whole entry): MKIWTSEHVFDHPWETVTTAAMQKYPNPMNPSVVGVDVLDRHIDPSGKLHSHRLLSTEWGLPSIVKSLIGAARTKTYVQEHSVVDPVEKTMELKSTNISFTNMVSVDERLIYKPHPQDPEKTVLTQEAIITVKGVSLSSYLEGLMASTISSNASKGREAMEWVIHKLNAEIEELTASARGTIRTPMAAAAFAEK
T3 sequence (Q9Y255 whole entry): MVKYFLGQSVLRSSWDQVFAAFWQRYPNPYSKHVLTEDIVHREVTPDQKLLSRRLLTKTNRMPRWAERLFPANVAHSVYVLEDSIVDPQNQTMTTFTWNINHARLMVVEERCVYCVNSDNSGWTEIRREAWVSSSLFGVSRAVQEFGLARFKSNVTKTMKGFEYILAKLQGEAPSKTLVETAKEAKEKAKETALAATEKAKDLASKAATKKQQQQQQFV
T3 sequence (O43715 whole entry partner): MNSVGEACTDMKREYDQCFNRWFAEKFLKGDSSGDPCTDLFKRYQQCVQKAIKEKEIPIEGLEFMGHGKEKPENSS
T1 sequence (Q9Y3B1 whole entry): as the sequence (Q9Y3B1 whole entry) above
T1 sequence (O43715 whole entry partner): as the sequence (O43715 whole entry partner) above

Compound | IC50 [1, 24] | IC50 [1, 25] | IC50 [1, 26] | Body weight [4] | Tumor volume [4] | IC50 [5, 27] | IC50 [5, 28] | IC50 [5, 29] | IC50 [7, 30] | IC50 [7, 31] | IC50 [7, 32] | Response with MBP [11] | Amount of mitochondrial cardiolipin [12] | Kinetic mode (on/off rate) [15] | Kd [15] | PRELID1 stability in PISA [17] | IC50 ([18]; 24 h, read-out: IC50 24 h) | IC50 ([18]; 48 h, read-out: IC50 48 h) | IC50 ([18]; 72 h, read-out: IC50 72 h) | further results
CC(C)=CCC[C@](C)(OC1O[C@H](CO)[C@@H](O)[C@H](O)[C@H]1O)C1CC[C@]2(C)C1[C@H](O)CC1[C@@]3(C)CC[C@H](O)C(C)(C)C3CC[C@]12C (stereo partly drawn) [CK, 20-O-β-(D-glucopyranosyl)-20(S)-protopanaxadiol, reference compound] | 64.7 ± 9.3 µM | 53.4 ± 2.4 µM | 40.5 ± 0.9 µM | No significant change in body weight | almost no difference | 67.1 ± 4.6 µM | 64 ± 3.3 µM | 59.1 ± 3.4 µM | 80.7 ± 3.7 µM | 71.3 ± 7.1 µM | 59.3 ± 2.8 µM | no does-dependent response | decreased significantly | fast on/off rate | 55.7 µM | stabilized | 73.6 ± 3.4 µM | 63.1 ± 2.7 µM | 42.3 ± 1.5 µM | IC50 ([1]; Homo sapiens, NCI-H460, 72 h, read-out: Cytotoxicity IC50): 45.1 ± 0.4 µM; Level of cytochrome c in cytosol ([2]; 50 μM): dramatically enhanced; Cytochrome c release with PG in medium ([2]; 50 μM): not observed; Formation of tube ([3]; 40 μM): inhibited; IC50 [6]: 49.8 ± 0.3 µM; Thermal stability of PRELID3b (CETSA) ([8]; 50 μM): stabilization; Cell viability with supplement of PG ([9]; A549, 100 μM): almost two-fold restored; IC50 [10]: 46.2 ± 2.1 µM; Percentage of apoptotic cells ([13]; A549, 60 μM): significant increase in the percentage of apoptotic cells; IC50 [14]: 36.2 ± 1.2 µM; Thermal stability of PRELID1 (CETSA) ([16]; 50 μM): stabilization; IC50 [19]: 43.6 ± 1.6 µM
CC(=O)OCC1OC(OC(C)(CCC=C(C)C)C2CCC3(C)C2C(OC(C)=O)CC2C4(C)CCC(OC(C)=O)C(C)(C)C4CCC23C)C(OC(C)=O)C(OC(C)=O)C1OC(C)=O (centres unmarked) [CKD-1] |  |  |  |  |  |  |  |  |  |  |  |  |  |  |  |  |  |  |  | IC50 ([1]; read-out: Cytotoxicity IC50, NCI-H460 cells, 48 h (Table 2)): > 100 µM; Solubility [20]: poor solubility
COc1ccc(C2OCC3OC(OC(C)(CCC=C(C)C)C4CCC5(C)C4C(O)CC4C6(C)CCC(O)C(C)(C)C6CCC45C)C(O)C(O)C3O2)cc1 (centres unmarked) [CKD-4] | 23.3 ± 1.4 µM | 16.5 µM | 15.4 ± 0.1 µM | No significant change in body weight | significant tumor volume inhibition | 30.8 ± 3.7 µM | 23.9 ± 0.9 µM | 17.4 ± 1.2 µM | 43.7 ± 4.4 µM | 25.1 ± 1.5 µM | 20.3 ± 1.1 µM | no does-dependent response | decreased significantly | slower | 5.3 µM | stabilized | 57.5 ± 0.6 µM | 25.9 ± 4.4 µM | 17.9 ± 2.8 µM | Level of cytochrome c in cytosol ([2]; 15 μM): dramatically enhanced; Cytochrome c release with PG in medium ([2]; 15 μM): Reduced level of cytochrome c was released; Formation of tube ([3]; 15 μM): inhibition is more obvious; Thermal stability of PRELID3b (CETSA) ([8]; 15 uM): stabilization; Cytotoxic potency in comparison with CK [21]: three-fold more potent; Amount of CK found in CKD-4 treated cells ([22]; 4 h): 1.33 % of total amount of CKD-4; Amount of CK found in CKD-4 treated cells ([22]; 24 h): 1.05 % of total amount of CKD-4; Cell viability with supplement of PG ([9]; A549, 12.5 μM): almost two-fold restored; Percentage of apoptotic cells ([13]; A549, 20 μM): significant increase in the percentage of apoptotic cells; Kd smaller than Kd of CK [15]: ~7 fold; Thermal stability of PRELID1 (CETSA) ([16]; 15 μM): stabilization; Suppression of cell viability ([23]; 20 μM, CellTiterGlo): less than 30%; Growth of patient derived organoid ([23]; 5, 10, 20, 35 and 50 μM): significantly inhibits the growth of patient derived organoid in a dose dependent manner
